# Calls of active or inactive are those of the source. No cut-off for these calls is given here.
# Tests used:
# [1] = test system: Vesicular stomatitis virus; test: Antiviral activity against VSV infected in mouse L929 cells assessed as protection against virus-induced cytopathic effect treated immediately after viral infection at 15 uM; assay type: functional
# [2] = test system: L929; test: Decrease in interferon inducing activity in VSV infected in mouse L929 cells at 1.1 uM; assay type: functional, cell-based
# [3] = Cytotoxicity against mouse L929 cells; assay type: cell-based
# [4] = test system: Vesicular stomatitis virus; test: Antiviral activity against VSV infected in mouse L929 cells assessed as protection against virus-induced cytopathic effect treated 24 hrs before viral infection at 30 uM; assay type: functional
# [5] = test system: Calf thymus DNA; test: Binding affinity to calf thymus DNA by ethidium bromide displacement assay; assay type: nucleic-acid assay, Bos taurus; conditions: for logKa: Bos taurus
# [6] = test system: Vesicular stomatitis virus; test: Antiviral activity against VSV infected in mouse L929 cells assessed as protection against virus-induced cytopathic effect treated immediately after viral infection at 21.4 uM; assay type: functional
# [7] = test system: Vesicular stomatitis virus; test: Antiviral activity against VSV infected in mouse L929 cells assessed as protection against virus-induced cytopathic effect treated 24 hrs before viral infection at 53 uM; assay type: functional
# [8] = test system: Vesicular stomatitis virus; test: Antiviral activity against VSV infected in mouse L929 cells assessed as protection against virus-induced cytopathic effect treated 24 hrs before viral infection at 110 uM; assay type: functional
# [9] = test system: Vesicular stomatitis virus; test: Antiviral activity against VSV infected in mouse L929 cells assessed as protection against virus-induced cytopathic effect treated immediately after viral infection at 27.5 uM; assay type: functional
# [10] = test system: Vesicular stomatitis virus; test: Antiviral activity against VSV infected in mouse L929 cells assessed as protection against virus-induced cytopathic effect treated immediately after viral infection at 21.3 uM; assay type: functional
# [11] = test system: Vesicular stomatitis virus; test: Antiviral activity against VSV infected in mouse L929 cells assessed as protection against virus-induced cytopathic effect treated 24 hrs before viral infection at 3 uM; assay type: functional
# [12] = test system: Vesicular stomatitis virus; test: Antiviral activity against VSV infected in mouse L929 cells assessed as protection against virus-induced cytopathic effect treated 24 hrs before viral infection at 13 uM; assay type: functional
# [13] = test system: Vesicular stomatitis virus; test: Antiviral activity against VSV infected in mouse L929 cells assessed as protection against virus-induced cytopathic effect treated immediately after viral infection at 6.2 uM; assay type: functional
# [14] = test system: Vesicular stomatitis virus; test: Antiviral activity against VSV infected in mouse L929 cells assessed as protection against virus-induced cytopathic effect treated 24 hrs before viral infection at 3.1 uM; assay type: functional
# [15] = test system: Vesicular stomatitis virus; test: Antiviral activity against VSV infected in mouse L929 cells assessed as protection against virus-induced cytopathic effect treated immediately after viral infection at 12.5 uM; assay type: functional
# [16] = test system: Vesicular stomatitis virus; test: Antiviral activity against VSV infected in mouse L929 cells assessed as protection against virus-induced cytopathic effect treated immediately after viral infection at 7.1 uM; assay type: functional
# [17] = test system: Vesicular stomatitis virus; test: Antiviral activity against VSV infected in mouse L929 cells assessed as protection against virus-induced cytopathic effect treated 24 hrs before viral infection at 113 uM; assay type: functional
# [18] = test system: Vesicular stomatitis virus; test: Antiviral activity against VSV infected in mouse L929 cells assessed as protection against virus-induced cytopathic effect treated immediately after viral infection at 25 uM; assay type: functional
# [19] = test system: Vesicular stomatitis virus; test: Antiviral activity against VSV infected in mouse L929 cells assessed as protection against virus-induced cytopathic effect treated immediately after viral infection at 5.5 uM; assay type: functional
# [20] = test system: Vesicular stomatitis virus; test: Antiviral activity against VSV infected in mouse L929 cells assessed as protection against virus-induced cytopathic effect treated 24 hrs before viral infection at 0.2 uM; assay type: functional
# [21] = test system: Vesicular stomatitis virus; test: Antiviral activity against VSV infected in mouse L929 cells assessed as protection against virus-induced cytopathic effect treated immediately after viral infection at 50 uM; assay type: functional
# [22] = test system: Vesicular stomatitis virus; test: Antiviral activity against VSV infected in mouse L929 cells assessed as protection against virus-induced cytopathic effect treated 24 hrs before viral infection at 6.2 uM; assay type: functional
# [23] = test system: Vesicular stomatitis virus; test: Antiviral activity against VSV infected in mouse L929 cells assessed as protection against virus-induced cytopathic effect treated immediately after viral infection at 6.7 uM; assay type: functional
Structure (SMILES),Activity [2],CC50 [3] [µM],pIC50 [5],logKa [5],Emax at 12.5 µM [15] [%],other results
CN(C)CCn1c2ccc3ccccc3c2c2nc3ccccc3nc21,Active,49.9,4.84,6.94,–,Emax at 15 µM [1]: 45%; Emax at 30 µM [4]: 21%
CC1CCN(CCn2c3ccc4ccccc4c3c3nc4ccccc4nc32)CC1,Active,> 214,4.48,6.58,–,Emax at 21.4 µM [6]: 51%; Emax at 53 µM [7]: 30%
c1ccc2c(c1)ccc1c2c2nc3ccccc3nc2n1CCN1CCCCC1,Active,> 221,4.51,6.61,–,Emax at 110 µM [8]: 20%; Emax at 27.5 µM [9]: 55%
CCCN(CCC)CCn1c2ccc3ccccc3c2c2nc3ccccc3nc21,Active,> 42.6,4.8,6.91,–,Emax at 21.3 µM [10]: 48%; Emax at 3 µM [11]: 16%
c1ccc2nc3c(nc2c1)c1ccccc1n3CCN1CCOCC1,Active,1070,3.78,5.89,–,Emax at 13 µM [12]: 85%; Emax at 6.2 µM [13]: 30%
c1ccc2nc3c(nc2c1)c1ccccc1n3CCN1CCCC1,Active,–,3.95,6.05,100,Emax at 3.1 µM [14]: 85%
CCN(CC)CCn1c2ccc3ccccc3c2c2nc3ccccc3nc21,Active,180,4.69,6.79,–,Emax at 7.1 µM [16]: 56%; Emax at 113 µM [17]: 14%
CCCCN(C)CCn1c2ccccc2c2nc3ccccc3nc21,Active,–,3.82,5.93,–,Emax at 3.1 µM [14]: 75%; Emax at 25 µM [18]: 80%
c1ccc2c(c1)ccc1c2c2nc3ccccc3nc2n1CCN1CCOCC1,Active,–,4.84,6.94,–,Emax at 5.5 µM [19]: 50%; Emax at 0.2 µM [20]: 10%
c1ccc2nc3c(nc2c1)c1ccccc1n3CCN1CCCCCC1,Active,–,4.06,6.16,–,Emax at 50 µM [21]: 100%; Emax at 6.2 µM [22]: 90%
CN1CCN(CCn2c3ccccc3c3nc4ccccc4nc32)CC1,Active,–,3.77,5.87,100,Emax at 13 µM [12]: 85%
CCN(CC)CCn1c2ccccc2c2nc3ccccc3nc21,Active,–,3.97,6.07,100,Emax at 6.2 µM [22]: 90%
CN1CCN(CCn2c3ccc4ccccc4c3c3nc4ccccc4nc32)CC1,Active,21.4,4.84,6.94,–,Emax at 13 µM [12]: 17%; Emax at 6.7 µM [23]: 80%
CC1CCN(CCn2c3ccccc3c3nc4ccccc4nc32)CC1,Active,–,3.88,5.98,50,Emax at 13 µM [12]: 90%
CCCCN(CC)CCn1c2ccccc2c2nc3ccccc3nc21,Active,–,3.91,6.01,50,Emax at 3.1 µM [14]: 50%
CC1CCCCN1CCn1c2ccc3ccccc3c2c2nc3ccccc3nc21 (stereo not drawn),Active,113,4.73,6.83,–,Emax at 53 µM [7]: 20%; Emax at 6.7 µM [23]: 50%
CCCN(CCC)CCn1c2ccccc2c2nc3ccccc3nc21,Active,–,3.99,6.09,75,Emax at 13 µM [12]: 90%
CC1CCCCN1CCn1c2ccccc2c2nc3ccccc3nc21 (stereo not drawn),Active,–,4.08,6.19,–,Emax at 6.2 µM [13]: 77%; Emax at 6.2 µM [22]: 90%
c1ccc2nc3c(nc2c1)c1ccccc1n3CCN1CCCCC1,Active,–,3.91,6.01,–,Emax at 3.1 µM [14]: 90%; Emax at 6.2 µM [13]: 75%
CN(C)CCn1c2ccccc2c2nc3ccccc3nc21,Active,–,3.83,5.93,–,Emax at 3.1 µM [14]: 75%; Emax at 25 µM [18]: 100%
